Several values for one entry are separate records, joined by “and”; a condition that tells them apart may be missing. Equal entries are not always repeated. Structures can show the parent of a compound that is named as a salt.

Assay type in all cases: cell-based
Experiment [1] concerns the target T1, CAH (Moorella thermoacetica, UniProt Q2RGM7).
T1 construct: expressed in transfected cells; host or cells: E. coli BL21(DE3)(pET28b+CAH), IPTG-induced
T1 sequence (Q2RGM7 1-367): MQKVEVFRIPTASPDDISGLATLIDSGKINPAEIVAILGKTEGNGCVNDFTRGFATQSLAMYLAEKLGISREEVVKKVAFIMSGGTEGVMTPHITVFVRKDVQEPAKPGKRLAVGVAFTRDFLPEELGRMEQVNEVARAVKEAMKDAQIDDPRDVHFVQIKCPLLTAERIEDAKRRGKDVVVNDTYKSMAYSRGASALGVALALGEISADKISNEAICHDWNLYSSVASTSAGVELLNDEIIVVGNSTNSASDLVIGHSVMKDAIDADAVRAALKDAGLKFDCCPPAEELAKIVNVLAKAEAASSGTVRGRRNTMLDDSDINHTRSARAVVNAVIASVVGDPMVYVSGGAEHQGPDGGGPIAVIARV

For experiment [2], the target named is T1, CAH. This is another data set of the same source.
Experiment [3] deals with T2, Azo reductase (Staphylococcus aureus, UniProt Q50H63).
T2 construct: expressed in transfected cells; host or cells: E. coli DH5 alpha
T2 sequence (Q50H63 1-188): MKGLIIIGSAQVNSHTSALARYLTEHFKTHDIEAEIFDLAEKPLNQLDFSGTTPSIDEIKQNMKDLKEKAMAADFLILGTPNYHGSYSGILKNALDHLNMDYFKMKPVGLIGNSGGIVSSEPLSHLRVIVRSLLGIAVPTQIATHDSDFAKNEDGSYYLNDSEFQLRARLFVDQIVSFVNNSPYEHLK

Experiment [4] concerns Pseudomonas sp. NCIB 9816-4.
For experiment [5], the system named is Escherichia coli DH5α.
The test system of experiment [6] is Glutathione-S transferase.
Experiment [7] concerns the target T3, AtzA (Pseudomonas sp., UniProt P72156).
T3 construct: expressed in transfected cells; host or cells: E. coli DH5α (pMD4)
T3 sequence (P72156 1-474): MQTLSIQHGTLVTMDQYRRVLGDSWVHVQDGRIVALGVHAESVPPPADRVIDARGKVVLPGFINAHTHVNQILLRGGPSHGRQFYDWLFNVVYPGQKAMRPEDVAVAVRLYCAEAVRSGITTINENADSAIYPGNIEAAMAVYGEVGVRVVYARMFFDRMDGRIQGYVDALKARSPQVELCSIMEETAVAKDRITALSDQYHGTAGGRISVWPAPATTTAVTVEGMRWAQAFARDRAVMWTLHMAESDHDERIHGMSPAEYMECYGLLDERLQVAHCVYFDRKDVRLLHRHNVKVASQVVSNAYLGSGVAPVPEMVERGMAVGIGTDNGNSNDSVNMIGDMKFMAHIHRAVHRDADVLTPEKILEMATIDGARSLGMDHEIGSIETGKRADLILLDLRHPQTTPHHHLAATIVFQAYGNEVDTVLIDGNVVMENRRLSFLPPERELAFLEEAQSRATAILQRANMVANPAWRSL

Experiment [8] concerns the target T3, AtzA. The source holds these as a separate data set.
Experiment [9] has as its system Homoprotocatechuate 2,3-dioxygenase.

Consider `O=c1[nH]c(=O)[nH]c(=O)[nH]1` [Cyanuric acid], for which, in experiment [1], the cyanuric acid removed result was “over 7,000 M” and the “degradation of cyanuric acid (in words)” value was “complete degradation”. In experiment [2], the “decrease of initial rate of cyanuric acid degradation” value is listed as “approximately 50%”. The cyanuric acid level result in experiment [2] (15 h) was “undetectable levels”.

Regarding `CN(C)c1ccc(/N=N/c2ccccc2C(=O)O)cc1` [methyl red sodium salt], in experiment [3], the “Ratio (free cells/gel)” value is 1.8-3.7.

Regarding `c1ccc2ccccc2c1` [Naphthalene], in experiment [4], the “concentration (below detection limit)” value is given as less than 1 nM and the “concentration left in the bulk solution (C/C0)” value is given as roughly 25%. In [5], the final concentration worked out at 215.39 ± 7.23 µM; the remaining concentration was 164.26 ± 8.90 µM and 107.67 ± 19.69 µM.

Take `Oc1ccccc1` [Phenol]: in experiment [4], the “removal of single substrate from hydrocarbon solution (in words)” value is reported as “very low removal”.

For `O=[N+]([O-])c1ccc(Cl)c([N+](=O)[O-])c1` [1-chloro2,4-dinitrobenzene], in [6], the “Ratio (free cells/gel)” value is reported as roughly 3.8.

As for `Cc1ccc(O)cc1` [p-Cresol], in experiment [4], the “removal of single substrate from hydrocarbon solution (in words)” value is “completely degraded”.

Take `CCNc1nc(Cl)nc(NC(C)C)n1` [Atrazine, 2-chloro-4-ethylamino-6-isopropylamino-1,3,5-triazine]: in [7], the “atrazine removal, solutions left for 24 h” value was “complete atrazine removal” and the “increase of degradation rate” value is given as “three-folds”. In [8], the “enhancement of atrazine degradation rates” value is reported as “threefold”; the “rate of atrazine removal, 75% phenyl gel compared to Teos gel” value is reported as “approximately 3 fold”; the “rate of hydroxyatrazine formation, 75% phenyl gel compared to Teos gel” value is recorded as “approximately 3 fold”.

With `CC(=O)Oc1ccc(O)c(O)c1` [3,4 Dihydroxypheny acetate], the “Ratio (free cells/gel)” value in [9] is given as 1-2.5.

The values are drawn from patent publication US20160175634A1 (priority 2014, published 2016).
